Results reported in US11453663B2, “Substituted propanamides as inhibitors of nucleases” (MASARYKOVA UNIVERZITA, priority 2018, dated 2022).

Experiments:
MRE11 = MRE11 (Homo sapiens (Human), UniProt P49959); assay: HTS nuclease assay (fluorescence-quenched 5′ overhang DNA substrate cleavage); format: biochemical; details: 18 nM MRE11, 40 nM DNA substrate, analysis at t=4 h
Description: DNA Substrate Preparation
The DNA substrate is prepared by mixing the oligonucleotides listed below in a 1:1 ratio to reach a final concentration of 6 μM in a buffer containing 50 mM Tris pH 7.5, 100 mM NaCl and 8 mM MgCl2.
The mixture is heat for 3 min at 65° C. and let to cool down slowly to RT. Then it is stored at −20° C.
This substrate is a 5′ overhang, which is a preferred substrate of MRE11. […] The fluorescence increases upon substrate cleavage by MRE11, when separation of the two labels occur.
The conditions of the assay are as follows:
Total reaction volume: 5 μL
DNA substrate concentration in the reaction: 40 nM
Inhibitor concentration range tested: 7 nM-50 μM
Each plate contains a series of high and low signal control wells, where no compound is added:
High signal: MRE11+DNA substrate
Low signal: DNA substrate only
These are used during data evaluation.
Two Extra Assay Controls:
1) To check whether unwinding of DNA by the compounds alone occurs.
The DNA substrate [CY5+BBQ(650)] is mixed with the compounds with no protein present.
The CY5 single stranded oligo is mixed with the compounds with no protein present.
The layout of the plates is created by the in-house software (CZ-Openscreen Prague) and this information is transferred to the robotic HTS station.
The reaction is started by the addition of DNA and the reaction time is counted from that moment, including a 15 min delay. Ten timepoints are measured:
The assay data analysis was performed at t=4 h. This corresponds to the time when the reaction is close to its maximum.
The data analysis was performed using the in-house software (CZ-Openscreen Prague) to obtain IC50 for each compound.

DR-GFP U2OS cells = assay: HR assay (GFP fluorescence by flow cytometry after I-SceI transfection); format: cell-based; details: Homo sapiens, 25 μM inhibitor, 72 hours after transfection
Description: DR-GFP U2OS cells (Methods in Molecular Biology 2012, 920, 379.) were transfected with 2.5 μg of I-SceI-expressing pCAGGS vector and treated with the inhibitors at 25 μM concentration. 72 hours after the transfection, the cells were trypsinized and resuspended in 3% BSA in PBS. GFP fluorescence detection was carried out using a BD FACSVerse flow cytometer and data analyzed with FlowJo software.

[1] = test system: Phosphorylated RPA32 S4/S8 in U2OS cells; assay: RPA assay (camptothecin-induced RPA phosphorylation); format: cell-based; details: Homo sapiens, 1 h pre-treatment, 1 uM camptothecin 1 h; for inhibition at 10 µM: 10 μM inhibitor
Description: U2OS cells were pre-treated for 1 h with MRE11 inhibitors followed by addition of 1 uM camptothecin for 1 h. Cells were lysed in SDS-PAGE loading buffer, sonicated and boiled at 70° C. for 10 min. Equal amounts of protein (50-100 μg) were analysed by Tris-glycine gel electrophoresis Expression levels were quantified using Multi Gauge software and expressed relative to loading control. Phosphorylated RPA32 S4/S8 (A300-245A, Bethyl Laboratories) 1:1000 dilution was used.

MRE11, sequence (P49959 whole entry): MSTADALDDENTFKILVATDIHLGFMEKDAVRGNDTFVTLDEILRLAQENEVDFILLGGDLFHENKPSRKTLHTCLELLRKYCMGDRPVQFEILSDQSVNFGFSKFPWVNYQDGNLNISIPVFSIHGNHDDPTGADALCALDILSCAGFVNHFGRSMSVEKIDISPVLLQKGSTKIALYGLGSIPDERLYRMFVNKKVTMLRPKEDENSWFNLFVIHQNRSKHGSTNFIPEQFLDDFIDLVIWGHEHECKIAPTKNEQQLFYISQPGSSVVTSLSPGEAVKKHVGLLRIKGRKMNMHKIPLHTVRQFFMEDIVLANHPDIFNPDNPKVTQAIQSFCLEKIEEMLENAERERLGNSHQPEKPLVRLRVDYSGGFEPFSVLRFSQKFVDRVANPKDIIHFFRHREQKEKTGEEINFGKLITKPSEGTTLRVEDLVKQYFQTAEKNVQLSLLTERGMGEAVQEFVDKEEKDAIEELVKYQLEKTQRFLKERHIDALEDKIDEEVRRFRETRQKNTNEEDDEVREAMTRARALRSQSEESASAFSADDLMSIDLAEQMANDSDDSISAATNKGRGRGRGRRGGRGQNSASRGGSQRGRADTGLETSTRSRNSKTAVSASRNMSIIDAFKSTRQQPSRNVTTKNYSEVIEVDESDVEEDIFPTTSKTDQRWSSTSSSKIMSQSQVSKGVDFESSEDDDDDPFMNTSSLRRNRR

Structure (SMILES)	IC50 (MRE11) [µM]	inhibition at 25 µM (DR-GFP U2OS cells) [%]	inhibition at 10 µM [1] [%]	inhibition at 25 µM ([1]; 25 μM inhibitor) [%]
N#CC(Cc1ccc(O)c(O)c1)C(=O)Nc1nc(-c2ccc(Br)cc2)cs1 (centres unmarked) [Preparative Example 129, N-(4-(4-bromophenyl)thiazol-2-yl)-2-cyano-3-(3,4-dihydroxyphenyl)propanamide]	2 to 10	> 75	60	–
N#CC(Cc1ccc(O)c(O)c1Br)C(=O)Nc1nc(-c2ccccc2)cs1 (centres unmarked) [Preparative Example 148, 3-(2-bromo-3,4-dihydroxyphenyl)-2-cyano-N-(4-phenylthiazol-2-yl)propanamide]	< 2	> 75	–	90
N#CC(Cc1ccc(O)c(O)c1)C(=O)Nc1nc(-c2ccc(OC(F)(F)F)cc2)cs1 (centres unmarked) [Preparative Example 136, 2-cyano-3-(3,4-dihydroxyphenyl)-N-(4-(4-(trifluoromethoxy)phenyl)thiazol-2-yl)propanamide]	2 to 10	> 75	40	–
CC(C)(C)c1ccc(-c2csc(NC(=O)C(C#N)Cc3ccc(O)c(O)c3)n2)cc1 (centres unmarked) [Preparative Example 140, N-(4-(4-(tert-butyl)phenyl)thiazol-2-yl)-2-cyano-3-(3,4-dihydroxyphenyl)propanamide]	2 to 10	> 75	40	–
CC(C)(C)c1cc(CC(C#N)C(=O)Nc2nc(-c3ccccc3)cs2)cc(C(C)(C)C)c1O (centres unmarked) [Preparative Example 139, 2-cyano-3-(3,5-di-tert-butyl-4-hydroxyphenyl)-N-(4-phenylthiazol-2-yl)propanamide]	–	> 75	70	–
N#CC(Cc1ccc(O)c(O)c1)C(=O)Nc1nc(-c2cc(Cl)sc2Cl)cs1 (centres unmarked) [Preparative Example 175, 2-cyano-N-(4-(2,5-dichlorothiophen-3-yl)thiazol-2-yl)-3-(3,4-dihydroxyphenyl)propanamide]	2 to 10	50 to 75	–	–
Cc1ccc(-c2sc(NC(=O)C(C#N)Cc3ccc(O)c(O)c3)nc2-c2ccccc2)cc1 (centres unmarked) [Preparative Example 135, 2-cyano-3-(3,4-dihydroxyphenyl)-N-(4-phenyl-5-(p-tolyl)thiazol-2-yl)propanamide]	< 2	> 75	–	–
N#CC(Cc1cc(Cl)c(O)c(Cl)c1)C(=O)Nc1nc(-c2ccc(OC(F)(F)F)cc2)cs1 (centres unmarked) [Preparative Example 137, 2-cyano-3-(3,5-dichloro-4-hydroxyphenyl)-N-(4-(4-(trifluoromethoxy)phenyl)thiazol-2-yl)propanamide]	2 to 10	< 50	–	–
N#CC(Cc1ccc(O)c(O)c1)C(=O)Nc1nc(-c2ccc(Cl)c(Cl)c2)cs1 (centres unmarked) [Preparative Example 160, 2-cyano-N-(4-(3,4-dichlorophenyl)thiazol-2-yl)-3-(3,4-dihydroxyphenyl)propanamide]	< 2	50 to 75	–	–
Cc1cc(CC(C#N)C(=O)Nc2nc(-c3ccccc3)cs2)cc(C)c1O (centres unmarked) [Preparative Example 147, 2-cyano-3-(4-hydroxy-3,5-dimethylphenyl)-N-(4-phenylthiazol-2-yl)propanamide]	10 to 90	50 to 75	–	–
COc1ccc(-c2csc(NC(=O)C(C#N)Cc3ccc(O)c(O)c3)n2)nc1 (centres unmarked) [Preparative Example 168, 2-cyano-3-(3,4-dihydroxyphenyl)-N-(4-(5-methoxypyridin-2-yl)thiazol-2-yl)propanamide]	< 2	> 75	–	–
N#CC(Cc1ccc(O)c(O)c1)C(=O)Nc1nc(-c2ncccc2F)cs1 (centres unmarked) [Preparative Example 172, 2-cyano-3-(3,4-dihydroxyphenyl)-N-(4-(3-fluoropyridin-2-yl)thiazol-2-yl)propanamide]	< 2	> 75	–	–
N#CC(Cc1cc(Cl)c(O)c(Cl)c1)C(=O)Nc1nc(-c2ccc3ccccc3c2)cs1 (centres unmarked) [Preparative Example 143, 2-cyano-3-(3,5-dichloro-4-hydroxyphenyl)-N-(4-(naphthalen-2-yl)thiazol-2-yl)propanamide]	2 to 10	< 50	–	–
Cc1cccc(-c2csc(NC(=O)C(C#N)Cc3ccc(O)c(O)c3)n2)n1 (centres unmarked) [Preparative Example 158, 2-cyano-3-(3,4-dihydroxyphenyl)-N-(4-(6-methylpyridin-2-yl)thiazol-2-yl)propanamide]	2 to 10	> 75	–	–
Cc1ccnc(-c2csc(NC(=O)C(C#N)Cc3ccc(O)c(O)c3)n2)c1 (centres unmarked) [Preparative Example 164, 2-cyano-3-(3,4-dihydroxyphenyl)-N-(4-(4-methylpyridin-2-yl)thiazol-2-yl)propanamide]	2 to 10	> 75	–	–
Cc1cc(CC(C#N)C(=O)Nc2nc(-c3ccccc3)cs2)cc(Cl)c1O (centres unmarked) [Preparative Example 155, 3-(3-chloro-4-hydroxy-5-methylphenyl)-2-cyano-N-(4-phenylthiazol-2-yl)propanamide]	10 to 90	< 50	–	–
N#CC(Cc1ccc(O)c(O)c1)C(=O)Nc1nc(-c2cccc(Cl)c2)cs1 (centres unmarked) [Preparative Example 162, N-(4-(3-chlorophenyl)thiazol-2-yl)-2-cyano-3-(3,4-dihydroxyphenyl)propanamide]	2 to 10	50 to 75	–	–
